Reference: US20260132127A1, “NOVEL SPIRO COMPOUND” (MITSUBISHI TANABE PHARMA CORPORATION, priority 2021, published 2026)

Biological target: T1, human TRH-DE (Homo sapiens, UniProt Q9UKU6)
T1 construct: expressed in transfected cells; host or cells: Expi 293 cells (transient expression), membrane fraction
T1 sequence (Q9UKU6 1-1069): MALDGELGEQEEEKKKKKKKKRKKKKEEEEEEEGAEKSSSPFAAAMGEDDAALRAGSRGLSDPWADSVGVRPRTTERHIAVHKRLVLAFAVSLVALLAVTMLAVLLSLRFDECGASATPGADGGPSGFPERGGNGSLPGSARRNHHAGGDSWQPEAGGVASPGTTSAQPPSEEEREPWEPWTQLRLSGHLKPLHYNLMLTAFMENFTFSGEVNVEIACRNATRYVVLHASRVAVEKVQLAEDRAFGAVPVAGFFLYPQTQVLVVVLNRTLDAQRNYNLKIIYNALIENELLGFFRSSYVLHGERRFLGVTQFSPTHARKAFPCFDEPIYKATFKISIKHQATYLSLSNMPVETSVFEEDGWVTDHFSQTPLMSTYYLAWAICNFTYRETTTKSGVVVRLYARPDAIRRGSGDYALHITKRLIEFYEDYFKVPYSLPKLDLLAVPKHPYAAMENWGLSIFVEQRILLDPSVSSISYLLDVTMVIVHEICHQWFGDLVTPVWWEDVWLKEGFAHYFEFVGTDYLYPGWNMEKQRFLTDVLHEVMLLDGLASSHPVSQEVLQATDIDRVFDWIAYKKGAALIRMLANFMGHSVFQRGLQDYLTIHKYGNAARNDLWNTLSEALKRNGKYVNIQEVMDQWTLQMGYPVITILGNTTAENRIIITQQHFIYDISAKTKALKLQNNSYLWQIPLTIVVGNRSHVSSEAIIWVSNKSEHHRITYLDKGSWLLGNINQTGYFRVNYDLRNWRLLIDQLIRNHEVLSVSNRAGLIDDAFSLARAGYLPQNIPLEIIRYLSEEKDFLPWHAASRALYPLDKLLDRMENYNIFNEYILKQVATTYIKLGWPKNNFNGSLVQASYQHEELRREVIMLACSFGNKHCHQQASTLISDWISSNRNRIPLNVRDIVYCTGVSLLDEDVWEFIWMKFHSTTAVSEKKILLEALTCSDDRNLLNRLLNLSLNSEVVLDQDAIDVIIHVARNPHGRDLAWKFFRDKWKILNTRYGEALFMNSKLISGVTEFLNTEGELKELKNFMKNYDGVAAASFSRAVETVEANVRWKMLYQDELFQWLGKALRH
Assay: TRH-DE inhibition test (RapidFire MS measurement of product Cyclo (His-Pro))
Assay type: biochemical
Conditions: membrane fraction of Expi 293 cells expressing human TRH-DE; 10 μM TRH substrate; room temperature, 2 hours; 16-point concentration test
Outline: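 Inhibition derived from product/internal-standard ratios of Cyclo(His-Pro), quantified by RapidFire triple-quadrupole MS after acetonitrile:methanol quench, with IC50 fitted over 16 concentrations. Enzyme source: membranes of Expi 293 cells transiently expressing human TRH-DE, 4 μg/ml, pH 7.4 phosphate buffer. Incubation with 10 μM substrate ran 2 h at room temperature.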

Compound	IC50 [µM]
CCCC(=O)N1C[C@@H](C)N(C2CC3(C2)CN(S(=O)(=O)c2ccccc2F)C3)C(=O)c2ncccc21 [Example 304]	1.07
CC(C)C(=O)N1C[C@@H](C)N(C2CC3(C2)CN(S(=O)(=O)c2ccccc2F)C3)C(=O)c2ncccc21 [Example 305]	0.062
C[C@@H]1CN(C(=O)C2CC2)c2cccnc2C(=O)N1C1CC2(C1)CN(S(=O)(=O)c1ccccc1F)C2 [Example 306]	0.056
COCC(=O)N1C[C@@H](C)N(C2CC3(C2)CN(S(=O)(=O)c2ccccc2F)C3)C(=O)c2ncccc21 [Example 307]	0.285
C[C@@H]1CN(C(=O)c2ccccc2)c2cccnc2C(=O)N1C1CC2(C1)CN(S(=O)(=O)c1ccccc1F)C2 [Example 308]	0.655
C[C@@H]1CCn2cncc2C(=O)N1C1CC2(C1)CN(S(=O)(=O)c1ccccc1F)C2 [Example 309, (7R)-8-[2-(2-fluorophenyl)sulfonyl-2-azaspiro[3.3]heptan-6-yl]-7-methyl-6,7-dihydro-5H-imidazo[1,5-a][1,4]diazepin-9-one]	0.032
C[C@@H]1CCn2ncc(C3CC3)c2C(=O)N1C1CC2(C1)CN(S(=O)(=O)c1ccccc1F)C2 [Example 319]	0.022
C[C@@H]1CCn2nc(F)c(C3CC3)c2C(=O)N1C1CC2(C1)CN(S(=O)(=O)c1ccccc1F)C2 [Example 320]	0.072
Cc1nc(C2CC2)n2c1C(=O)N(C1CC3(C1)CN(S(=O)(=O)c1ccccc1F)C3)[C@H](C)CC2 [Example 323]	0.103
Cc1onc2c1OC[C@@H](C)N(C1CC3(C1)CN(S(=O)(=O)c1ccccc1F)C3)C2=O [Example 324]	0.037
C[C@@H]1Cn2nc(F)c(C3CC3)c2C(=O)N1C1CC2(C1)CN(S(=O)(=O)c1ccccc1F)C2 [Example 327]	0.006
Cc1nc(C2CC2)c2n1C[C@@H](C)N(C1CC3(C1)CN(S(=O)(=O)c1ccccc1F)C3)C2=O [Example 329]	0.067
C[C@@H]1COc2cc(C#N)cnc2C(=O)N1C1CC2(C1)CN(S(=O)(=O)c1ccccc1F)C2 [Example 332, (3R)-4-[2-(2-fluorophenyl)sulfonyl-2-azaspiro[3.3]heptan-6-yl]-3-methyl-5-oxo-2,3-dihydropyrido[2,3-f][1,4]oxazepin-8-carbonitrile]	0.004
CC(=O)c1cnc2c(c1)OC[C@@H](C)N(C1CC3(C1)CN(S(=O)(=O)c1ccccc1F)C3)C2=O [Example 336]	0.002
C[C@@H]1COc2cc(C(F)(F)F)cnc2C(=O)N1C1CC2(C1)CN(S(=O)(=O)c1ccccc1F)C2 [Example 337]	0.002
C[C@@H]1CNc2cccnc2C(=O)N1C1CC2(C1)CN(S(=O)(=O)c1ccccc1F)C2 [Example 338, (3R)-4-[2-(2-fluorophenyl)sulfonyl-2-azaspiro[3.3]heptan-6-yl]-3-methyl-2,3-dihydro-1H-pyrido[3,2-e][1,4]diazepin-5-one]	0.004
CC1CCc2[nH]c(=O)ccc2C(=O)N1C1CC2(C1)CN(S(=O)(=O)c1ccccc1F)C2 (centres unmarked) [Example 339, 6-[2-(2-fluorophenyl)sulfonyl-2-azaspiro[3.3]heptan-6-yl]-7-methyl-1,7,8,9-tetrahydropyrido[3,2-c]azepin-2,5-dione]	0.078
C[C@@H]1CCn2c(C3CC3)nc(C(F)F)c2C(=O)N1C1CC2(C1)CN(S(=O)(=O)c1ccccc1F)C2 [Example 342, (7R)-3-cyclopropyl-1-(difluoromethyl)-8-[2-(2-fluorophenyl)sulfonyl-2-azaspiro[3.3]heptan-6-yl]-7-methyl-6,7-dihydro-5H-imidazo[1,5-a][1,4]diazepin-9-one]	0.05
CC1Cc2cc(C(F)(F)F)ncc2C(=O)N1C1CC2(C1)CN(S(=O)(=O)c1ccccc1F)C2 (centres unmarked) [Example 343, 2-[2-(2-fluorophenyl)sulfonyl-2-azaspiro[3.3]heptan-6-yl]-3-methyl-6-(trifluoromethyl)-3,4-dihydro-2,7-naphthyridin-1-one]	0.018

Next, values leading:

IC50 [µM]	Compound
0.041	C[C@@H]1CCn2cnc(C3CC3)c2C(=O)N1C1CC2(C1)CN(S(=O)(=O)c1ccccc1F)C2 [Example 310]
0.001	C[C@@H]1COc2cc(C3CC3)cnc2C(=O)N1C1CC2(C1)CN(S(=O)(=O)c1ccccc1F)C2 [Example 311]
0.002	Cc1cc2c(cn1)C(=O)N(C1CC3(C1)CN(S(=O)(=O)c1ccccc1F)C3)[C@H](C)CO2 [Example 312]
0.001	C[C@@H]1COc2cc(C3CC3)ncc2C(=O)N1C1CC2(C1)CN(S(=O)(=O)c1ccccc1F)C2 [Example 313]
0.009	Cc1ccc2c(n1)OC[C@@H](C)N(C1CC3(C1)CN(S(=O)(=O)c1ccccc1F)C3)C2=O [Example 314]
0.003	C[C@@H]1COc2ncc(C3CC3)cc2C(=O)N1C1CC2(C1)CN(S(=O)(=O)c1ccccc1F)C2 [Example 315]
0.002	C[C@@H]1COc2nc(C3CC3)ccc2C(=O)N1C1CC2(C1)CN(S(=O)(=O)c1ccccc1F)C2 [Example 316]
0.003	Cc1nc2c(cc1F)C(=O)N(C1CC3(C1)CN(S(=O)(=O)c1ccccc1F)C3)[C@H](C)CO2 [Example 317]
0.009	Cc1ncc2c(n1)OC[C@@H](C)N(C1CC3(C1)CN(S(=O)(=O)c1ccccc1F)C3)C2=O [Example 318]
0.074	C[C@@H]1COc2nn(C)c(C3CC3)c2C(=O)N1C1CC2(C1)CN(S(=O)(=O)c1ccccc1F)C2 [Example 321]
0.007	C[C@@H]1CCn2c(cnc2C2CC2)C(=O)N1C1CC2(C1)CN(S(=O)(=O)c1ccccc1F)C2 [Example 322]
0.017	C[C@@H]1COc2c(noc2C2CC2)C(=O)N1C1CC2(C1)CN(S(=O)(=O)c1ccccc1F)C2 [Example 325]
0.004	C[C@@H]1Cn2ncc(C3CC3)c2C(=O)N1C1CC2(C1)CN(S(=O)(=O)c1ccccc1F)C2 [Example 326]
0.014	C[C@@H]1Cn2cnc(C3CC3)c2C(=O)N1C1CC2(C1)CN(S(=O)(=O)c1ccccc1F)C2 [Example 328]
0.019	C[C@@H]1Cn2cc(C3CC3)nc2C(=O)N1C1CC2(C1)CN(S(=O)(=O)c1ccccc1F)C2 [Example 330]
0.003	C[C@@H]1COc2nc(C3CC3)ncc2C(=O)N1C1CC2(C1)CN(S(=O)(=O)c1ccccc1F)C2 [Example 331, (7R)-2-cyclopropyl-6-[2-(2-fluorophenyl)sulfonyl-2-azaspiro[3.3]heptan-6-yl]-7-methyl-7,8-dihydropyrimido[5,4-f][1,4]oxazepin-5-one]
0.018	C[C@@H]1COc2ncc(C#N)cc2C(=O)N1C1CC2(C1)CN(S(=O)(=O)c1ccccc1F)C2 [Example 333, (3R)-4-[2-(2-fluorophenyl)sulfonyl-2-azaspiro[3.3]heptan-6-yl]-3-methyl-5-oxo-2,3-dihydropyrido[3,2-f][1,4]oxazepin-7-carbonitrile]
0.018	Cc1nc2c(cc1C#N)C(=O)N(C1CC3(C1)CN(S(=O)(=O)c1ccccc1F)C3)[C@H](C)CO2 [Example 334]
0.005	C[C@@H]1COc2nc(C(F)F)cnc2C(=O)N1C1CC2(C1)CN(S(=O)(=O)c1ccccc1F)C2 [Example 341, (7R)-3-(difluoromethyl)-8-[2-(2-fluorophenyl)sulfonyl-2-azaspiro[3.3]heptan-6-yl]-7-methyl-6,7-dihydropyrazino[2,3-f][1,4]oxazepin-9-one]
